Laboratory results from patent US20260297042A1, “BIARYLAMIDE DERIVATIVES AND THEIR USE AS PKMYT1 INHIBITORS” (CANCER RESEARCH TECHNOLOGY LIMITED, priority 2023, published 2026).

Legend:
WEE1 = molecular target: T1, WEE1 (Homo sapiens, UniProt P30291); experiment: Selectivity versus WEE1 assay (ADP-Glo enzymatic assay); type: biochemical; conditions: banded; for IC50: ADP-Glo, 15 nM WEE1, 60 minutes at 26° C.; for PKMYT1 vs. WEE1 selectivity: fold difference in selectivity for PKMYT1 over WEE1, ">N" = at least in this band but could be higher
T1 construct: purchased Thermo Fisher PR7373A
T1 sequence (P30291 whole entry): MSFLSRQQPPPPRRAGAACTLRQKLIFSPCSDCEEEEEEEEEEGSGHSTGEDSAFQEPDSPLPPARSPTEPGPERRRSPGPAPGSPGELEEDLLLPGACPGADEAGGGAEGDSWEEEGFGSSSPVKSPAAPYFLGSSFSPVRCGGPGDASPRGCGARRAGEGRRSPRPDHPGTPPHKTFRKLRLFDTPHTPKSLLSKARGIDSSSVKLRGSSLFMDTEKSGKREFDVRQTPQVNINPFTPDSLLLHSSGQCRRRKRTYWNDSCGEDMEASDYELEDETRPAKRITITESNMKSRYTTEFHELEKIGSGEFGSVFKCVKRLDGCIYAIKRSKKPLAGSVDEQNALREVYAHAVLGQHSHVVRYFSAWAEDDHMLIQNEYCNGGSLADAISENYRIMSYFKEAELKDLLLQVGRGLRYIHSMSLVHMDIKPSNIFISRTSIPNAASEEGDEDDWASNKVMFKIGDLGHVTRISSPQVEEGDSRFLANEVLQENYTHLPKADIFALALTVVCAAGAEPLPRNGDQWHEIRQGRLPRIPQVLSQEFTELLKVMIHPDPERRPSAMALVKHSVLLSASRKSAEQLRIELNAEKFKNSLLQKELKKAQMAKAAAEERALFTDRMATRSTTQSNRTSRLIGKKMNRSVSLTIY
Procedure, shortened: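 Compounds were pre-dispensed, enzyme (15 nM final) was added in pH 7.5 HEPES buffer, and ATP ([…]) then started a 60 min incubation at 26° C. Afterwards ADP-Glo reagents were added in turn and luminescence was measured to derive IC50 values.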

Human PKMYT1 = molecular target: T2, Human PKMYT1 (Homo sapiens, UniProt Q99640); experiment: PKMYT1 biochemical ADP-Glo enzymatic assay; conditions: ADP-Glo; 15 nM PKMYT1 kinase domain, 500 µM ATP, 60 minutes at 26° C.; banded
T2 construct: Human PKMYT1 75-362 was cloned as a TEV cleavable 6xHis fusion; 6xHis (TEV cleavable) (cleaved yes); made in house; host or cells: bacterial cells
T2 sequence (Q99640 75-362): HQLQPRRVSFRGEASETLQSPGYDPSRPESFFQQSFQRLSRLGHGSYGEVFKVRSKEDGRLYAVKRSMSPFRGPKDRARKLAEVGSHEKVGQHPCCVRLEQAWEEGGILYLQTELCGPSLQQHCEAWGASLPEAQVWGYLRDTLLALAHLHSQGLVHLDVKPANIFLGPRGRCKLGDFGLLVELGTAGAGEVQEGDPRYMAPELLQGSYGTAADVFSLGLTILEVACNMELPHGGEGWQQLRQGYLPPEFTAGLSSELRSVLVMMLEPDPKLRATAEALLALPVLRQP
Procedure, shortened: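 Compounds were titrated over 10 points (3-fold steps), then 15 nM purified PKMYT1 kinase domain (aa 75-362) and 500 µM ATP were added in pH 7.5 HEPES buffer. After 60 min at 26 °C, remaining ATP was depleted and ADP converted to luminescence for IC50 fitting.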

Row | IC50 (WEE1) | PKMYT1 vs. WEE1 selectivity (WEE1) | IC50 (Human PKMYT1) | SMILES
1 | > 11 µM | Y (1000-5000 fold) | < 50 nM | Cc1cc(Nc2ncc(C(=O)Nc3c(C)ccc(O)c3C)s2)n(CC(C)C)n1 [BAA-238, N-(3-hydroxy-2,6-dimethylphenyl)-2-((1-isobutyl-3-methyl-1H-pyrazol-5-yl)amino)thiazole-5-carboxamide]
2 | 1 to 11 µM | W (10-<100 fold) | 50 to 1000 nM | Cc1ccc(O)c(C)c1NC(=O)c1cnc(Nc2cc(C)n(CCC(N)=O)n2)s1 [BAA-239, 2-((1-(3-amino-3-oxopropyl)-5-methyl-1H-pyrazol-3-yl)amino)-N-(3-hydroxy-2,6-dimethylphenyl)thiazole-5-carboxamide]
3 | > 11 µM | X (100-<1000 fold) | 50 to 1000 nM | Cc1cc(Nc2ncc(C(=O)Nc3c(C)ccc(O)c3C)s2)n(CCC(N)=O)n1 [BAA-240, 2-((1-(3-amino-3-oxopropyl)-3-methyl-1H-pyrazol-5-yl)amino)-N-(3-hydroxy-2,6-dimethylphenyl) thiazole-5-carboxamide]
4 | > 11 µM | X (100-<1000 fold) | 50 to 1000 nM | Cc1ccc(O)c(C)c1NC(=O)c1cnc(Nc2cc(C)n(CCC(=O)O)n2)s1 [BAA-241, 3-(3-((5-((3-hydroxy-2,6-dimethylphenyl)carbamoyl)thiazol-2-yl)amino)-5-methyl-1H-pyrazol-1-yl)propanoic acid]
5 | > 11 µM | Y (1000-5000 fold) | 50 to 1000 nM | COc1ccc2cc(Nc3ncc(C(=O)Nc4c(C)ccc(O)c4C)s3)nn2c1 [BAA-242, N-(3-Hydroxy-2,6-dimethylphenyl)-2-((6-methoxypyrazolo[1,5-a]pyridin-2-yl)amino)thiazole-5-carboxamide]
6 | 1 to 11 µM | X (100-<1000 fold) | < 50 nM | Cc1ccc(O)c(C)c1NC(=O)c1cnc(Nc2c3ccncc3nn2C)s1 [BAA-244, N-(3-hydroxy-2,6-dimethylphenyl)-2-((2-methyl-2H-pyrazolo[3,4-c]pyridin-3-yl)amino)thiazole-5-carboxamide]
7 | > 11 µM | Y (1000-5000 fold) | < 50 nM | Cc1ccc(O)c(C)c1NC(=O)c1cnc(Nc2cc(C3CC3)n(C)n2)s1 [BAA-245, 2-((5-cyclopropyl-1-methyl-1H-pyrazol-3-yl)amino)-N-(3-hydroxy-2,6-dimethylphenyl)thiazole-5-carboxamide]
8 | > 11 µM | W (10-<100 fold) | 1000 to 11000 nM | Cc1ccc(O)c(C)c1NC(=O)c1cnc(Nc2nn(C)c3c2CCCC3)s1 [BAA-246, N-(3-hydroxy-2,6-dimethylphenyl)-2-((1-methyl-4,5,6,7-tetrahydro-1H-indazol-3-yl)amino)thiazole-5-carboxamide]
9 | > 11 µM | Y (1000-5000 fold) | 50 to 1000 nM | Cc1ccc(O)c(C)c1NC(=O)c1cnc(Nc2nn(C)c3c2CCC3)s1 [BAA-247, N-(3-hydroxy-2,6-dimethylphenyl)-2-((1-methyl-1,4,5,6-tetrahydrocyclopenta[c]pyrazol-3-yl)amino)thiazole-5-carboxamide]
10 | 1 to 11 µM | X (100-<1000 fold) | < 50 nM | Cc1ccc(O)c(C)c1NC(=O)c1cnc(Nc2c3cnccc3nn2C)s1 [BAA-248, N-(3-hydroxy-2,6-dimethylphenyl)-2-((2-methyl-2H-pyrazolo[4,3-c]pyridin-3-yl)amino)thiazole-5-carboxamide]
11 | > 11 µM | X (100-<1000 fold) | 50 to 1000 nM | Cn1ccc(Nc2ncc(C(=O)Nc3c(F)ccc(O)c3F)s2)n1 [BAA-249, N-(2,6-difluoro-3-hydroxyphenyl)-2-((1-methyl-1H-pyrazol-3-yl)amino)thiazole-5-carboxamide]
12 | > 11 µM | X (100-<1000 fold) | < 50 nM | Cc1ccc(O)c(C)c1NC(=O)c1cnc(Nc2cc3n(n2)CCN(C)C3=O)s1 [BAA-250, N-(3-hydroxy-2,6-dimethylphenyl)-2-((5-methyl-4-oxo-4,5,6,7-tetrahydropyrazolo[1,5-a]pyrazin-2-yl)amino)thiazole-5-carboxamide]
13 | 1 to 11 µM | X (100-<1000 fold) | < 50 nM | Cc1ccc(O)c(C)c1NC(=O)c1cnc(Nc2cc(CO)n(C)n2)s1 [BAA-251, N-(3-hydroxy-2,6-dimethylphenyl)-2-((5-(hydroxymethyl)-1-methyl-1H-pyrazol-3-yl)amino)thiazole-5-carboxamide]
14 | 1 to 11 µM | X (100-<1000 fold) | 50 to 1000 nM | COCc1cc(Nc2ncc(C(=O)Nc3c(C)ccc(O)c3C)s2)nn1C [BAA-252, N-(3-hydroxy-2,6-dimethylphenyl)-2-((5-(methoxymethyl)-1-methyl-1H-pyrazol-3-yl)amino)thiazole-5-carboxamide]
15 | > 11 µM | X (100-<1000 fold) | 50 to 1000 nM | Cc1ccc(O)c(C)c1NC(=O)c1cnc(Nc2cc(C(=O)OC(C)(C)C)n(C)n2)s1 [BAA-253, tert-butyl 3-((5-((3-hydroxy-2,6-dimethylphenyl)carbamoyl)thiazol-2-yl)amino)-1-methyl-1H-pyrazole-5-carboxylate]
16 | > 11 µM | Y (1000-5000 fold) | 50 to 1000 nM | Cc1ccc(O)c(C)c1NC(=O)c1cnc(Nc2nn(C)cc2C(N)=O)s1 [BAA-254, 2-((4-carbamoyl-1-methyl-1H-pyrazol-3-yl)amino)-N-(3-hydroxy-2,6-dimethylphenyl)thiazole-5-carboxamide]
17 | > 11 µM | X (100-<1000 fold) | 50 to 1000 nM | COCCn1nc(Nc2ncc(C(=O)Nc3c(C)ccc(O)c3C)s2)cc1C [BAA-255, N-(3-hydroxy-2,6-dimethylphenyl)-2-((1-(2-methoxyethyl)-5-methyl-1H-pyrazol-3-yl)amino)thiazole-5-carboxamide]
18 | 1 to 11 µM | W (10-<100 fold) | < 50 nM | Cc1ccc(O)c(C)c1NC(=O)c1cnc(Nc2cc(C(C)(C)O)n(C)n2)s1 [BAA-256, N-(3-hydroxy-2,6-dimethylphenyl)-2-((5-(2-hydroxypropan-2-yl)-1-methyl-1H-pyrazol-3-yl)amino)thiazole-5-carboxamide]
19 | > 11 µM | Y (1000-5000 fold) | < 50 nM | Cc1ccc(O)c(C)c1NC(=O)c1cnc(Nc2nccs2)s1 [BAA-257, N-(3-hydroxy-2,6-dimethylphenyl)-2-(thiazol-2-ylamino)thiazole-5-carboxamide]
20 | > 11 µM | W (10-<100 fold) | 1000 to 11000 nM | Cc1nnc(Nc2ncc(C(=O)Nc3c(C)ccc(O)c3C)s2)o1 [BAA-258, N-(3-hydroxy-2,6-dimethylphenyl)-2-((5-methyl-1,3,4-oxadiazol-2-yl)amino)thiazole-5-carboxamide]
21 | > 11 µM | X (100-<1000 fold) | 50 to 1000 nM | Cc1ccc(O)c(C)c1NC(=O)c1cnc(Nc2cccc(C(=O)NC(C(C)C)C(F)(F)F)c2)s1 (stereo not drawn) [BAA-259, N-(3-hydroxy-2,6-dimethylphenyl)-2-((3-((1,1,1-trifluoro-3-methylbutan-2-yl)carbamoyl)phenyl)amino)thiazole-5-carboxamide]
22 | > 11 µM | W (10-<100 fold) | 50 to 1000 nM | Cc1ccc(O)c(C)c1NC(=O)c1cnc(Nc2ccnn2CCN)s1 [BAA-260, 2-((1-(2-aminoethyl)-1H-pyrazol-5-yl)amino)-N-(3-hydroxy-2,6-dimethylphenyl)thiazole-5-carboxamide]
23 | > 11 µM | X (100-<1000 fold) | 50 to 1000 nM | Cc1ccc(O)c(C)c1NC(=O)c1cnc(Nc2cccc(C(=O)N3CC(F)(F)C(F)(F)C3)c2)s1 [BAA-261, N-(3-hydroxy-2,6-dimethylphenyl)-2-((3-(3,3,4,4-tetrafluoropyrrolidine-1-carbonyl)phenyl)amino)thiazole-5-carboxamide]
24 | > 11 µM | X (100-<1000 fold) | < 50 nM | Cc1cnc(Nc2ncc(C(=O)Nc3c(C)ccc(O)c3C)s2)s1 [BAA-262, N-(3-hydroxy-2,6-dimethylphenyl)-2-((5-methylthiazol-2-yl)amino)thiazole-5-carboxamide]
25 | > 11 µM | X (100-<1000 fold) | 50 to 1000 nM | Cc1nnc(Nc2ncc(C(=O)Nc3c(C)ccc(O)c3C)s2)s1 [BAA-263, N-(3-hydroxy-2,6-dimethylphenyl)-2-((5-methyl-1,3,4-thiadiazol-2-yl)amino)thiazole-5-carboxamide]
